# Where two headings read alike, the source gives them in different places.
# Tests used:
# [1] = test system: Enterobacter cloacae; assay: in vitro bacteriostatic activity, agar dilution MIC; assay type: cell-based
# [2] = test system: Streptococcus bovis; assay: as above; assay type: cell-based; details: Streptococcus equinus; Streptococcus bovis 12-3
# [3] = test system: Staphylococcus aureus; assay: in vitro bacteriostatic activity, agar dilution MIC, quality control strains; assay type: cell-based; details: read-out: MIC
# [4] = test system: Staphylococcus aureus ATCC 25923; assay: prevention of bacterial infection, colony count on patchoulol-coated tubes; details: cultured 7 days at 37°C
# [5] = test system: xylene-induced ear edema; details: mice, dose-dependent; cited from earlier work
# [6] = test system: Escherichia coli E^+; assay: in vitro bacteriostatic activity, agar dilution MIC; assay type: cell-based
# Experimental: (§1) Preparation of drug-containing flat plates: patchoulol was diluted by coubling double dilution in DMSO, and 1 ml and 14 ml of sterile MH culture media in different gradient concentrations were respectively added to the disposable sterile petri dishes. Tested drugs were respectively diluted to different gradient concentrations from 768 to 0.006 µg/ml, fully mixed, and dried to reserve. As mentioned above, replacing tested drug with same amount of normal saline was used to prepare positive control plates.
# (§2) Preparation of bacterial liquid: Tested strains and drug-sensitive strains used for quality control were diluted with stroke-physiological saline solution to the concentration of 10^6 CFU/ml.
# (§3) Bacteriostatic activity assay […]: using multipoint inoculation instrument, the tested strain liquid was added to the drug-containing flat plates with different gradient concentrations and positive control plates respectively, and replacing the bacterial liquid with 5 µL normal saline, served as the negative control.
# (§4) Staphylococcus aureus and Staphylococcus epidermidis were cultured at 35-37°C for 18-24 h in MH media (containing 2% NaCl); Streptococcus pneumonia was cultured in brain heart infusion agar media (containing 5% goat blood) within an incubator under 5% CO2 at 35°C for 24 hours; Gram-negative bacteria and other strains were placed in an incubator at 35-37°C and cultured for 18-20 h; Results were observed and recorded.
# (§5) Result assessment: The minimum concentration of drug in no bacterial growth plates was regarded as the minimum inhibitory concentration (MIC) of the drug to the stain.
# [7] = test system: Shiglla flexneri; assay: as above; assay type: cell-based
# Experimental: as §1, §2, §3, §4, §5
# [8] = test system: influenza virus H2N2; details: intragastric administration of 5 mg/(kg·d); cited from earlier work
# [9] = test system: Acinetobacter lwoffii; assay: in vitro bacteriostatic activity, agar dilution MIC; assay type: cell-based
# [10] = test system: influenza virus A/PR/8/34 (H1N1); details: in vitro; cited from earlier work
# [11] = test system: Klebsiella pneumonia E^-; assay: in vitro bacteriostatic activity, agar dilution MIC; assay type: cell-based
# [12] = test system: Staphylococcus epidermidis MSSE; assay: as above; assay type: cell-based; details: Staphylococcus epidermidis, read-out: MIC
# [13] = test system: Staphylococcus haemolyticus; assay: as above; assay type: cell-based
# [14] = test system: Staphylococcus saprophyticus; assay: as above; assay type: cell-based
# [15] = test system: Enterococcus faecalis; assay: as above; assay type: cell-based; details: Enterococcus faecalis, read-out: MIC
# [16] = test system: Staphylococcus epidermidis ATCC 12228; assay: in vitro bacteriostatic activity, agar dilution MIC, quality control strain; assay type: cell-based; details: ATCC12228; Staphylococcus epidermidis ATCC 12228; read-out: MIC
# [17] = test system: Chryseobacterium indologenes; assay: in vitro bacteriostatic activity, agar dilution MIC; assay type: cell-based
# [18] = test system: methicillin-resistant Staphylococcus aureus ATCC 43300; assay: prevention of bacterial infection, colony count on patchoulol-coated tubes; details: cultured 7 days at 37°C
# [19] = test system: Megasphaera elsdenii; assay: in vitro bacteriostatic activity, agar dilution MIC; assay type: cell-based
# [20] = test system: influenza virus A/FM/1/47 (H1N1); details: intragastric 40 and 80 mg/kg for successive 7 days; cited from earlier work
# [21] = 400, 200, 100 and 50 µg/ml, compared with 0 µg/ml
# [22] = patchoulol on intraductal membranes more than or equal to 600 µg/ml
smiles,measurement,setting,value
"C[C@H]1CC[C@@]2(O)C(C)(C)[C@@H]3CC[C@@]2(C)[C@H]1C3 (stereo in doubt) [PC, (1R,4S,4aS,6R,8aS)-octahydro-4,8a,9,9-tetramethyl-1,6-methanonaphthalen-1(2H)-ol]",MIC,"[1]; Enterobacter cloacae 12-1, read-out: MIC",50 µg/mL
same,MIC,[1]; Enterobacter cloacae 12-2,50 µg/mL
same,MIC,[2],50 µg/mL
same,MIC,"[3]; ATCC25923, Staphylococcus aureus ATCC 25923",1.5 µg/mL
same,MIC,"[3]; ATCC29213, Staphylococcus aureus ATCC 29213",64 µg/mL
same,bacterial colony numbers,[4]; [21],decrease
same,bacterial colony numbers,[4]; [22],0
same,xylene-induced ear edema,[5],effectively inhibit
same,MIC,[6]; Escherichia coli E^+ 10-7,> 768 µg/mL
same,MIC,[6]; Escherichia coli E^+ 10-9,> 768 µg/mL
same,MIC,[7]; Shiglla flexneri 12-1,400 µg/mL
same,MIC,"[7]; Shiglla flexneri 12-2, read-out: MIC",50 µg/mL
same,protective effect on infected model mice,[8],obvious protective effect
same,MIC,"[9]; Acinetobacter lwoffii 12-1, read-out: MIC",50 µg/mL
same,MIC,[9]; Acinetobacter lwoffii 12-2,50 µg/mL
same,IC50,[10],~2640 nM
same,MIC,[11]; Klebsiella pneumonia E^- 10-18,>768 µg/mL
same,MIC,"[11]; Klebsiella pneumoniae, Klebsiella pneumonia E^- 10-16, read-out: MIC",> 768 µg/mL
same,MIC,[12]; Staphylococcus epidermidis MSSE 10-43,1.5 µg/mL
same,MIC,[12]; Staphylococcus epidermidis MSSE 10-44,1.5 µg/mL
same,MIC,[12]; Staphylococcus epidermidis MSSE 12-11,32 µg/mL
same,MIC,[12]; Staphylococcus epidermidis MSSE 12-12,32 µg/mL
same,MIC,[12]; Staphylococcus epidermidis MSSE 12-13,64 µg/mL
same,MIC,[12]; Staphylococcus epidermidis MSSE 12-14,64 µg/mL
same,MIC,[12]; Staphylococcus epidermidis MSSE 12-15,64 µg/mL
same,MIC,[12]; Staphylococcus epidermidis MSSE 12-16,32 µg/mL
same,MIC,[12]; Staphylococcus epidermidis MSSE 12-17,32 µg/mL
same,MIC,[12]; Staphylococcus epidermidis MSSE 12-18,32 µg/mL
same,MIC,[12]; Staphylococcus epidermidis MSSE 12-19,32 µg/mL
same,MIC,[12]; Staphylococcus epidermidis MSSE 12-20,64 µg/mL
same,MIC,[13],100 µg/mL
same,MIC,[14]; Staphylococcus saprophyticus 12-2,100 µg/mL
same,MIC,[14]; Staphylococcus saprophyticus12-3,100 µg/mL
same,MIC,"[14]; Staphylococcus saprophyticus, Staphylococcus saprophyticus12-1, read-out: MIC",100 µg/mL
same,MIC,"[15]; ATCC29212, Enterococcus faecalis ATCC 29212",128 µg/mL
same,MIC,"[15]; ATCC51299, Enterococcus faecalis (high endurance) ATCC 51299",128 µg/mL
same,MIC,[15]; Enterococcus faecalis 12-11,> 128 µg/mL
same,MIC,[15]; Enterococcus faecalis 12-12,32 µg/mL
same,MIC,[15]; Enterococcus faecalis 12-13,128 µg/mL
same,MIC,[15]; Enterococcus faecalis 12-14,64 µg/mL
same,MIC,[15]; Enterococcus faecalis 12-17,128 µg/mL
same,MIC,[15]; Enterococcus faecalis 12-18,128 µg/mL
same,MIC,[15]; Enterococcus faecalis 12-19,128 µg/mL
same,MIC,[15]; Enterococcus faecalis 12-20,128 µg/mL
same,MIC,[15]; Enterococcus faecalis 12-21,64 µg/mL
same,MIC,[15]; Enterococcus faecalis 12-22,64 µg/mL
same,MIC,[16],64 µg/mL
same,MIC,"[17]; Chryseobacterium indologenes12- (first line, r25)",25 µg/mL
same,MIC,"[17]; Chryseobacterium indologenes12- (second line, r26)",100 µg/mL
same,bacterial colony numbers,[18]; [21],decrease
same,bacterial colony numbers,[18]; [22],0
same,MIC,[19]; Megasphaera elsdenii 12-1,50 µg/mL
same,MIC,[19]; Megasphaera elsdenii 12-2,25 µg/mL
same,MIC,[19]; Megasphaera elsdenii 12-3,50 µg/mL
same,MIC,[19]; Megasphaera elsdenii 12-4,50 µg/mL
same,survival rate of nonlethal and lethal model mice,[20],obviously improve the survival rate
